Results reported in patent US10214512B2, “Factor XIA inhibitors” (MERCK SHARP & DOHME CORP., priority 2015, dated 2019).

Target: purified human Factor XIa (Homo sapiens (Human), UniProt P03951)
Assay: Factor XIa Assay
Type: biochemical
Settings: purified human Factor XIa 40 pM; substrate Z-Gly-Pro-Arg-AFC 100 μM; 50 mM HEPES pH 7.4; read-out: Human FXIa Ki
Description: The effectiveness of a compound of the present invention as an inhibitor of Coagulation Factor XIa can be determined using a relevant purified serine protease, and an appropriate synthetic substrate. The rate of hydrolysis of the chromogenic or fluorogenic substrate by the relevant serine protease was measured both in the absence and presence of compounds of the present invention. Assays were conducted at rt or at 37° C. […] A decrease in the rate of fluorescence change in the presence of inhibitor is indicative of enzyme inhibition. Such methods are known to one skilled in the art. The results of this assay are expressed as the inhibitory constant, Ki.
Factor XIa determinations were made in 50 mM HEPES buffer at pH 7.4 containing 150 mM NaCl, 5 mM CaCl2, and 0.1% PEG 8000 (polyethylene glycol; JT Baker or Fisher Scientific). Determinations were made using purified human Factor XIa at a final concentration of 40 pM (Sekisui Diagnostics) and he synthetic substrate, Z-Gly-Pro-Arg-AFC, TFA salt (Sigma #C0980) at a concentration of 100 μM.
Times required to achieve equilibration between enzyme and inhibitor were determined in control experiments. Initial velocities of product formation in the absence (Vo) or presence of inhibitor (Vi) were measured. Assuming competitive inhibition, and that unity is negligible compared Km/[S], [I]/e, and [I]/e (where [S], [I], and e respectively represent the total concentrations, of substrate, inhibitor and enzyme), the equilibrium constant (Ki) for dissociation of the inhibitor from the enzyme can be obtained from the dependence of Vo/Vi on [I] shown in the following equation.

purified human Factor XIa, sequence (P03951 388-625): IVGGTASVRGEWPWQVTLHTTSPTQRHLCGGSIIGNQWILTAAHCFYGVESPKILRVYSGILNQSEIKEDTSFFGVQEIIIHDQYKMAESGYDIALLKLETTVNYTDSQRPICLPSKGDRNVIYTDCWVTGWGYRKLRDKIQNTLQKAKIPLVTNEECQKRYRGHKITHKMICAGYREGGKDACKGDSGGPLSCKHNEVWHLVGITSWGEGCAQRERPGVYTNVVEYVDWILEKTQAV
purified human Factor XIa, sequence (P03951 19-387 partner): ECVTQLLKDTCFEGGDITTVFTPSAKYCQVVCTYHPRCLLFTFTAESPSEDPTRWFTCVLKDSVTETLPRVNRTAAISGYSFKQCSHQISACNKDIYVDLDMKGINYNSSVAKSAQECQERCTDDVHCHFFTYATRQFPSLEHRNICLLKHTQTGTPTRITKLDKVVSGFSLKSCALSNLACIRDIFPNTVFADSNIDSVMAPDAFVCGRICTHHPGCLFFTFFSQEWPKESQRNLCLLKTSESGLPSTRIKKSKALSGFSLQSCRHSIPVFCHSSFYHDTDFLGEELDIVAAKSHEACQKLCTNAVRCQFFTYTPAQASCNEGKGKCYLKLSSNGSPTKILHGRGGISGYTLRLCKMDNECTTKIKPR

SMILES	Ki
O=C1CCCC[C@H](c2ccc(-c3c(F)ccc(Cl)c3F)c[n+]2[O-])c2cccc(c2)-c2ccc(NC(=O)OCCO)cc2N1 [Example 46, (S)-5-(3-chloro-2,6-difluorophenyl)-2-(2^4-(((2-hydroxyethoxy)carbonyl)amino)-4-oxo-3-aza-1(1,3),2(1,2) -dinenzenacyclononaphane-9-yl)pyridine 1-oxide]	0.24 nM
O=C1CCCCC(c2ccc(-c3c(F)ccc(Cl)c3F)cn2)c2cccc(c2)-c2cc3c(O)cc(=O)[nH]c3cc2N1 (centres unmarked) [Example 49, 3-(5-(3-chloro-2,6-difluorophenyl)pyridin-2-yl)-1^4-hydroxy-1^1,1^2-dihydro-9-aza-1 (6,7)-quinolina-2(1,3)-benzenacyclononaphane-1^2,8-dione]	15.6 nM
COC(=O)Nc1ccc2c(c1)NC(=O)CCCCC(c1ccc(-c3c(F)ccc(Cl)c3F)cn1)c1cc(F)cc-2c1 (centres unmarked) [Example 53, methyl (9-(5-(3-chloro-2,6-difluorophenyl)pyridin-2-yl)-1^5-fluoro-4-oxo-3-aza-1(1,3),2(1,2)-dibenzenacyclononaphane-2^4-yl)carbamate]	> 875 nM
COC(=O)Nc1ccc2c(c1)NC(=O)CCCCC(c1ccc(-c3c(F)ccc(Cl)c3F)cn1)c1ccc(F)c-2c1 (centres unmarked) [Example 54, methyl (9-(5-(3-chloro-2,6-difluorophenyl)pyridin-2-yl)-1^6-fluoro-4-oxo-3-aza-1(1,3),2(1,2)-dibenzenacyclononaphane-2^4-yl)carbamate]	839 nM
COC(=O)Nc1ccc2c(c1)NC(=O)CCCCC(c1ccc(-c3c(F)ccc(Cl)c3F)cn1)c1cc(F)c(F)c-2c1 (centres unmarked) [Example 55, methyl (9-(5-(3-chloro-2,6-difluorophenyl)pyridin-2-yl)-1^5,1^6-difluoro-4-oxo-3-aza-1(1,3),2(1,2)-dibenzenacyclononaphane-2^4-yl)carbamate]	> 875 nM
COC(=O)Nc1ccc2c(c1)NC(=O)CCCCC(c1ccc(-c3c(F)ccc(Cl)c3F)cn1)c1cc-2ncc1F (centres unmarked) [Example 58, methyl (9-(5-(3-chloro-2,6-difluorophenyl)pyridin-2-yl)-1^5-fluoro-4-oxo-3-aza-1(2,4)-pyridina-2(1,2)-benzenacyclononaphane-2^4-yl)carbamate]	167 nM
O=C1CCCCC(c2ccc(-c3c(-n4cnnn4)ccc(Cl)c3F)cn2)c2cc(ncc2F)-c2cc(F)ccc2N1 (centres unmarked) [Example 59, 9-(5-(3-chloro-2-fluoro-6-(1h-tetrazol-1-yl)phenyl)pyridin-2-yl)-1^5,2^5-difluoro-3-aza-1(2,4)-pyridina-2(1,2)-benzenacyclononaphan-4-one]	8.9 nM
COC(=O)Nc1ccc2c(c1)NC(=O)CCCCC(c1ccc(-c3c(F)ccc(Cl)c3F)cn1)c1cc-2c(F)cn1 (centres unmarked) [Example 60, methyl (9-(5-(3-chloro-2,6-difluorophenyl)pyridin-2-yl)-1^5-fluoro-4-oxo-3-aza-1(4,2)-pyridina-2(1,2)-benzenacyclononaphane-2^4-yl)carbamate]	342 nM
COC(=O)Nc1ccc2c(c1)NC(=O)CCCCC(c1ccc(-c3c(F)ccc(Cl)c3F)cn1)c1cc-2ccn1 (centres unmarked) [Example 62, methyl (9-(5-(3-chloro-2,6-difluorophenyl)pyridin-2-yl)-4-oxo-3-aza-1(4,2)-pyridina-2(1,2)-benzenacyclononaphane-2^4-yl)carbamate]	33 nM
COC(=O)Nc1ccc2c(c1)NC(=O)CCCCC(c1ccc(-c3c(F)ccc(Cl)c3F)cn1)c1ccc(F)c-2n1 (centres unmarked) [Example 63, methyl (9-(5-(3-chloro-2,6-difluorophenyl)pyridin-2-yl)-1^3-fluoro-4-oxo-3-aza-1(2,6)-pyridina-2(1,2)-benzenacyclononaphane-2^4-yl)carbamate]	> 875 nM
COC(=O)Nc1ccc2c(c1)NC(=O)CCCCC(c1ccc(-c3c(F)ccc(Cl)c3F)cn1)c1cc-2ncn1 (centres unmarked) [Example 64, methyl (9-(5-(3-chloro-2,6-difluorophenyl)pyridin-2-yl)-4-oxo-3-aza-1(4,6)-pyrimidina-2(1,2)-benzenacyclononaphane-2^4-yl)carbamate]	164 nM
